Laboratory results published in patent US11712438B2, “Phenyl derivatives as PGE2 receptor modulators” (IDORSIA PHARMACEUTICALS LTD, priority 2017, dated 2023).

How the values were obtained:
Experiment in all cases: cell-based
PTRGER4 (EP4) = PTRGER4 (EP4) (Homo sapiens, UniProt P35408);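 also: assay plate preincubated 15 min at 37 °C, after which PGE2 was added at 20 nM final and incubation continued 120 min at 37 °C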
Excerpt: The assay is using the PathHunter™ HEK 293 PTGER2 and PTGER4 b-arrestin cell lines from DiscoverX. The system is based on the Enzyme Fragment Complementation Technology. Two complementing fragments of the b-galactosidase enzyme are expressed within stably transfected cells. The larger portion of b-gal, termed EA for Enzyme Acceptor, is fused to the C-terminus of b-arrestin 2. The smaller fragment, termed ProLink™ tag, is fused to PTGER2 (EP2) or PTRGER4 (EP4) at the C-terminus. Upon activation, b-arrestin is recruited which forces the interaction of ProLink and EA, allowing complementation of the two fragments of b-gal and the formation of a functional enzyme which is capable of hydrolysing the substrate and generating a chemiluminescent signal.
The HEK 293 PTGER4 b-arrestin cells (DiscoverX 93-030-4C1) are detached from culture dishes with a cell dissociation buffer (Invitrogen, 13151-014), and collected in growing medium (GM: DMEM+Glutamax-I (Invitrogen 32430)/10% FCS, 1% Penicilin/streptomycin). 5000 cells per well of a 384 well plate (white with white bottom Greiner 781080) are seeded in 20 ul per well of GM. Plate is incubated at 37° C., 5% CO2 for 24 hours.
Stock solutions of test compounds are made at a concentration of 10 mM in DMSO, and serially diluted in DMSO to concentrations required for inhibition dose response curves (tested concentration range 10 μM-2 nM or 1 μM-0.2 nM).
PGE2 (Cayman 14010, stock solution: 100 uM in DMSO) is used as agonist at 20 nM final concentration, corresponding to EC80.
Five microliters of diluted compounds are transferred into the assay plate. Plate is pre-incubated 15 minutes at 37° C. Then five microliters of PGE2 (final conc. 20 nM) are transferred into the assay plate. Plate is incubated 120 minutes at 37° C.
Twelve μl of reagent are transferred to the assay plate and incubate for 1 hour at room temperature in the dark. Luminescence counts are read on a BMG Fluostar Optima reader according to manufacturers instructions.
For each compound concentration calculate of the percentage of activity compared to DMSO control value as average±STDEV. (each concentration is measured in duplicate)
When compounds were measured multiple times, mean values are given.

EP2 = EP2 (Homo sapiens, UniProt P43116);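 also: SF295 glioblastoma cells with endogenous EP2 only, PGE2-stimulated cAMP accumulation read by HTRF competitive immunoassay, 45 min pre-incubation then 30 min at room temperature, IBMX in buffer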
Sequence of EP2 (P43116 whole entry): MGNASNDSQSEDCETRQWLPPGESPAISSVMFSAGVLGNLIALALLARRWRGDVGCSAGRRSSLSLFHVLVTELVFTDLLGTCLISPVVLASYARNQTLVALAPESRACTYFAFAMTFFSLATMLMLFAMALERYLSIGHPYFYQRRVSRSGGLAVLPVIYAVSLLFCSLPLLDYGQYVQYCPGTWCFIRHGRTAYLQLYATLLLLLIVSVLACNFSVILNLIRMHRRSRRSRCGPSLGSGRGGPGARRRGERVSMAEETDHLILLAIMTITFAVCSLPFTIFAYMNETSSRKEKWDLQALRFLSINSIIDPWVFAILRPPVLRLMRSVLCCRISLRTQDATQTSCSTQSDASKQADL
Description: The antagonistic activities of the compounds of formula (I) on the EP2 and EP4 receptors are also determined in accordance with the following experimental method.
Human tumor cell lines expressing endogenously either EP4 or EP2 are used and cAMP accumulation in cells upon PGE2 stimulation is monitored. SF295 glioblastoma cells express high endogenous EP2 and no EP4,whereas BT549 breast cancer cells, express high endogenous EP4 levels and very low EP2 levels.
As a detection method for cAMP the HTRF (homogeneous time resolved fluorescence) Cisbio kit (HTRF cAMP dynamic 2 kit 20′000 tests Cisbio Cat. #62AM4PEC) was used, which is based on a competitive immunoassay using a Cryptate-labeled anti-cAMP antibody and d2-labeled cAMP. Native cAMP produced by cells or unlabeled cAMP (for the standard curve) compete with exogenously added d2-labeled cAMP (acceptor) for binding to monoclonal anti-cAMP-Eu3+ Cryptate (donor). A FRET signal (Fluorescence Resonance Energy Transfer) is obtained only if the labeled anti-cAMP antibody binds the d2 labelled cAMP, thus the specific signal (i.e. energy transfer) is inversely proportional to the concentration of cAMP in the standard or sample.
The SF295 cells (NCI/No. 0503170) are detached from culture dishes with a cell dissociation buffer (Invitrogen, 13151-014), and collected in growing medium (GM: RPM11640 (Invitrogen 21875)/10% FCS, 1% Penicilin/streptomycin). Cells are counted washed and resuspended in assay buffer (AB; HBSS, 20 mM HEPES, 0.2% BSA; 2 mM IBMX). 4′000 cells in 5 μl of AB are seeded per well of a small volume 384 well plate (black with flat bottom, Greiner 784076).
PGE2 (Cayman 14010, stock solution: 750 in DMSO) is used as agonist at 75 nM final concentration, corresponding to EC80.
Two point five microliters of diluted compounds are transferred into the assay plate. Plate is pre-incubated 45 minutes at room temperature. Subsequently, 2.5 microliters of PGE2 (final conc. 75 nM) are transferred into the assay plate. Plate is incubated 30 minutes at room temperature.
For each compound concentration the percentage of cAMP compared to DMSO control value as average±STDEV (each concentration is measured in duplicate) is calculated.

EP4 = EP4 (Homo sapiens, UniProt P35408);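 also: inhibition of PGE2-evoked (6 nM) cAMP accumulation in BT549 breast cancer cells endogenously expressing EP4, cAMP read by HTRF competitive immunoassay after 30 min at room temperature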
Sequence of EP4 (P35408 whole entry): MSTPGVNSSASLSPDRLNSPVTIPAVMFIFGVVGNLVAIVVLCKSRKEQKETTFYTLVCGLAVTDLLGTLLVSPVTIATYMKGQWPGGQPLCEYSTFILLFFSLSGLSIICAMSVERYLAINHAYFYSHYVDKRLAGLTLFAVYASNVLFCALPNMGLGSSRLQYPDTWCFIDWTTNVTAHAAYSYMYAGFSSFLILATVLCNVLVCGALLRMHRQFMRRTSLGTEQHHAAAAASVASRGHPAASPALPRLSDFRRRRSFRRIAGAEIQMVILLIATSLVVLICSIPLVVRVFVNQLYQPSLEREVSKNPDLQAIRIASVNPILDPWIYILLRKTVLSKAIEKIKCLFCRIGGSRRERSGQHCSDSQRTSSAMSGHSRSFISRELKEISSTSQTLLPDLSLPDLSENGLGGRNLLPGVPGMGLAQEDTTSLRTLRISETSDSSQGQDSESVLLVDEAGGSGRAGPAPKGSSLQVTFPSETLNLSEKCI

Sequence of PTRGER4 (EP4) (P35408 whole entry): as above

SMILES	IC50 (PTRGER4 (EP4))	IC50 (EP2)	IC50 (EP4)
Cc1ccc(CCNc2cc(-c3ccc(C(=O)O)c(OC4CCC4)c3)ncn2)cc1C [Example 20, 2-Cyclobutoxy-4-{6-[2-(3,4-dimethyl-phenyl)-ethylamino]-pyrimidin-4-yl}-benzoic acid]	446 nM	498 nM	574 nM
O=C(O)c1sc(-c2cc(NCCc3ccc(C(F)(F)F)cc3)ncn2)cc1F [Example 22, 3-Fluoro-5-{6-[2-(4-trifluoromethyl-phenyl)-ethylamino]-pyrimidin-4-yl}-thiophene-2-carboxylic acid]	187 nM	759 nM	68 nM
Oc1cc(-c2ccc(-c3cc(NCCc4c(F)cc(Br)cc4F)ncn3)cc2)on1 [Example 33, 5-(4-{6-[2-(4-Bromo-2,6-difluoro-phenyl)-ethylamino]-pyrimidin-4-yl}-phenyl)-isoxazol-3-ol]	156 nM	1130 nM	149 nM
O=c1nc(-c2ccc(-c3cc(NCCc4c(F)cc(Br)cc4F)ncn3)cc2)o[nH]1 [Example 34, 5-(4-(6-((4-Bromo-2,6-difluorophenethyl)amino)pyrimidin-4-yl)phenyl)-[1,2,4]oxadiazol-3(2H)-one]	261 nM	437 nM	676 nM
CCOc1cc(-c2cc(NCCc3ccc(C)cc3C)ncn2)sc1C(=O)O [Example 57, 5-{6-[2-(2,4-Dimethyl-phenyl)-ethylamino]-pyrimidin-4-yl}-3-ethoxy-thiophene-2-carboxylic acid]	1160 nM	295 nM	166 nM
CCOc1cc(-c2cc(NCCc3cccc(C(F)(F)F)c3)ncn2)sc1C(=O)O [Example 61, 3-Ethoxy-5-{6-[2-(3-trifluoromethyl-phenyl)-ethylamino]-pyrimidin-4-yl}-thiophene-2-carboxylic acid]	363 nM	715 nM	161 nM
COc1cccc(CCNc2cc(-c3cc(C(F)(F)F)c(C(=O)O)s3)ncn2)c1 [Example 63, 5-{6-[2-(3-Methoxy-phenyl)-ethylamino]-pyrimidin-4-yl}-3-trifluoromethyl-thiophene-2-carboxylic acid]	233 nM	644 nM	105 nM
CCOc1cc(-c2cc(NCCc3cc(OC)cc(OC)c3)ncn2)sc1C(=O)O [Example 67, 5-{6-[2-(3,5-Dimethoxy-phenyl)-ethylamino]-pyrimidin-4-yl}-3-ethoxy-thiophene-2-carboxylic acid]	261 nM	712 nM	245 nM
CCOc1cc(-c2cc(NCCc3ccc(OC)c(Br)c3)ncn2)sc1C(=O)O [Example 74, 5-{6-[2-(3-Bromo-4-methoxy-phenyl)-ethylamino]-pyrimidin-4-yl}-3-ethoxy-thiophene-2-carboxylic acid]	90 nM	533 nM	33 nM
CCOc1cc(-c2cc(NCCc3cccc(Cl)c3)ncn2)sc1C(=O)O [Example 77, 5-{6-[2-(3-Chloro-phenyl)-ethylamino]-pyrimidin-4-yl}-3-ethoxy-thiophene-2-carboxylic acid]	121 nM	415 nM	108 nM
CCOc1cc(-c2cc(NCCc3cccc(Br)c3)ncn2)sc1C(=O)O [Example 79, 5-{6-[2-(3-Bromo-phenyl)-ethylamino]-pyrimidin-4-yl}-3-ethoxy-thiophene-2-carboxylic acid]	203 nM	408 nM	106 nM
CCOc1cc(-c2cc(NCCc3cccc(F)c3)ncn2)sc1C(=O)O [Example 81, 3-Ethoxy-5-{6-[2-(3-fluoro-phenyl)-ethylamino]-pyrimidin-4-yl}-thiophene-2-carboxylic acid]	554 nM	318 nM	125 nM
CCOc1cc(-c2cc(NCCc3ccc(Br)cc3OC(F)(F)F)ncn2)sc1-c1noc(=O)[nH]1 [Example 84, 3-(5-{6-[2-(4-Bromo-2-trifluoromethoxy-phenyl)-ethylamino]-pyrimidin-4-yl}-3-ethoxy-thiophen-2yl)-[1,2,4]oxadiazol-5(4H)-one]	116 nM	358 nM	166 nM
CCOc1cc(-c2cc(NCCc3ccc(Cl)cc3NC)ncn2)sc1-c1noc(=O)[nH]1 [Example 91, 3-(5-{6-[2-(4-Chloro-2-methylamino-phenyl)-ethylamino]-pyrimidin-4-yl}-3-ethoxy-thiophen-2yl)-[1,2,4]oxadiazol-5(4H)-one]	42 nM	2840 nM	335 nM
CCOc1cc(-c2cc(NCCc3ccc(C(F)(F)F)cc3F)ncn2)sc1-c1noc(=O)[nH]1 [Example 93, 3-(3-Ethoxy-5-{6-[2-(2-fluoro-4-trifluoromethyl-phenyl)-ethylamino]-pyrimidin-4-yl}-thiophen-2yl)-[1,2,4]oxadiazol-5(4H)-one]	3 nM	509 nM	6 nM
CCOc1cc(-c2cc(NCCc3ccc(Br)cc3N3CCCC3)ncn2)sc1-c1noc(=O)[nH]1 [Example 112, 3-(5-{6-[2-(4-Bromo-2-pyrrolidin-1-yl-phenyl)-ethylamino]-pyrimidin-4-yl}-3-ethoxy-thiophen-2yl)-[1,2,4]oxadiazol-5(4H)-one]	80 nM	892 nM	192 nM
CCOc1cc(-c2cc(NCCc3ccc(OC)c(Cl)c3)ncn2)sc1-c1noc(=O)[nH]1 [Example 122, 3-(5-{6-[2-(3-Chloro-4-methoxy-phenyl)-ethylamino]-pyrimidin-4-yl}-3-ethoxy-thiophen-2yl)-[1,2,4]oxadiazol-5(4H)-one]	8 nM	906 nM	19 nM
NC(=O)c1sc(-c2cc(NCCc3c(F)cc(Br)cc3F)ncn2)cc1C(F)(F)F [Example 134, 5-{6-[2-(4-Bromo-2,6-difluoro-phenyl)-ethylamino]-pyrimidin-4-yl}-3-trifluoromethyl-thiophene-2-carboxylic acid amide]	98 nM	284 nM	718 nM
O=c1[nH]c(-c2cccc(-c3cc(NCCc4ccc(Br)cc4)ncn3)c2)no1 [Example 147, 3-(3-{6-[2-(4-Bromo-phenyl)-ethylamino]-pyrimidin-4-yl}-phenyl)-[1,2,4]oxadiazol-5(4H)-one]		490 nM	834 nM

Second part, the molecule after the results:

IC50 (PTRGER4 (EP4))	IC50 (EP2)	IC50 (EP4)	SMILES
139 nM	376 nM	81 nM	CCOc1cc(-c2cc(NCCc3ccc(OC)cc3)ncn2)sc1C(=O)O [Example 60, 3-Ethoxy-5-{6-[2-(4-methoxy-phenyl)-ethylamino]-pyrimidin-4-yl}-thiophene-2-carboxylic acid]
915 nM	382 nM	170 nM	CCOc1cc(-c2cc(NCCc3ccc(O)cc3)ncn2)sc1C(=O)O [Example 69, 3-Ethoxy-5-{6-[2-(4-hydroxy-phenyl)-ethylamino]-pyrimidin-4-yl}-thiophene-2-carboxylic acid]
14 nM	208 nM	13 nM	CCOc1cc(-c2cc(NCCc3ccc(C)c(C)c3)ncn2)sc1-c1noc(=O)[nH]1 [Example 83, 3-(5-{6-[2-(3,4-Dimethyl-phenyl)-ethylamino]-pyrimidin-4-yl}-3-ethoxy-thiophen-2-yl)-[1,2,4]oxadiazol-5(4H)-one]
101 nM	956 nM	399 nM	CCOc1cc(-c2cc(NCCc3ccc(Br)cc3CC)ncn2)sc1-c1noc(=O)[nH]1 [Example 104, 3-(5-{6-[2-(4-Bromo-2-ethyl-phenyl)-ethylamino]-pyrimidin-4-yl}-3-ethoxy-thiophen-2-yl)-[1,2,4]oxadiazol-5(4H)-one]
34 nM	629 nM	235 nM	CCOc1cc(-c2cc(NCCc3ccc(Br)cc3)ncn2)sc1C(N)=O [Example 128, 5-{6-[2-(4-Bromo-phenyl)-ethylamino]-pyrimidin-4-yl}-3-ethoxy-thiophene-2-carboxylic acid amide]
45 nM	372 nM	247 nM	CCOc1cc(-c2cc(NCCc3ccc(Br)cc3)ncn2)sc1C(=N)NO [Example 129, 5-{6-[2-(4-Bromo-phenyl)-ethylamino]-pyrimidin-4-yl}-3-ethoxy-N-hydroxy-thiophene-2-carboxamidine]
6 nM	594 nM	60 nM	CCOc1cc(-c2cc(NCCc3ccc(Br)cc3)ncn2)sc1-c1noc(=S)[nH]1 [Example 132, 3-(5-{6-[2-(4-Bromo-phenyl)-ethylamino]-pyrimidin-4-yl}-3-ethoxy-thiophen-2-yl)-[1,2,4]oxadiazole-5(4H)-thione]
411 nM	371 nM	963 nM	CCOc1cc(-c2cc(NCCc3ccc(Br)cc3)ncn2)sc1Cc1noc(=O)[nH]1 [Example 137, 3-(5-{6-[2-(4-Bromo-phenyl)-ethylamino]-pyrimidin-4-yl}-3-ethoxy-thiophen-2-ylmethyl)-[1,2,4]oxadiazol-5(4H)-one]
6 nM	290 nM	149 nM	CCOc1cc(-c2cc(NCCc3ccc(Br)cc3)ncn2)sc1-c1noc(N)n1 [Example 139, {6-[5-(5-Amino-[1,2,4]oxadiazol-3-yl)-4-ethoxy-thiophen-2-yl]-pyrimidin-4-yl}-[2-(4-bromo-phenyl)-ethyl]-amine]
12 nM	345 nM	218 nM	CCOc1cc(-c2cc(NCCc3ccc(Br)cc3)ncn2)sc1-c1noc(OC)n1 [Example 140, [2-(4-Bromo-phenyl)-ethyl]-{6-[4-ethoxy-5-(5-methoxy-[1,2,4]oxadiazol-3-yl)-thiophen-2-yl]-pyrimidin-4-yl}-amine]
	604 nM	344 nM	CCOc1cc(-c2cc(NCCc3ccc(Br)cc3)ncn2)sc1-c1noc(CO)n1 [Example 143, [3-(5-{6-[2-(4-Bromo-phenyl)-ethylamino]-pyrimidin-4-yl}-3-ethoxy-thiophen-2-yl)-[1,2,4]oxadiazol-5-yl]-methanol]
	1120 nM	690 nM	CCOc1cc(-c2cc(NCCc3ccc(Br)cc3)ncn2)sc1C(C)O (stereo not drawn) [Example 145, 1-(5-{6-[2-(4-Bromo-phenyl)-ethylamino]-pyrimidin-4-yl}-3-ethoxy-thiophen-2-yl)-ethanol]
